Test results taken from patent US11019820B2 (BASF SE, priority 2013, dated 2021).
Read-outs that look alike come from different tables or passages of the source.

How the values were obtained:
Type in all cases: in vivo
Myzus persicae = assay: Green peach aphid (Myzus persicae) systemic artificial diet test; conditions: 72 h, read-out: mortality in comparison with untreated controls (aphid mortality)
Source text: For evaluating control of green peach aphid (Myzus persicae) through systemic means the test unit consisted of 96-well-microtiter plates containing liquid artificial diet under an artificial membrane.
The compounds were formulated using a solution containing 75% v/v water and 25% v/v DMSO. Different concentrations of formulated compounds were pipetted into the aphid diet, using a custom built pipetter, at two replications.
After application, 5-8 adult aphids were placed on the artificial membrane inside the microtiter plate wells. The aphids were then allowed to suck on the treated aphid diet and incubated at about 23±1° C. and about 50±5% relative humidity for 3 days. Aphid mortality and fecundity was then visually assessed.

Megoura viciae = assay: Vetch aphid (Megoura viciae) leaf disk test; conditions: foliar, 120 h, read-out: mortality in comparison with untreated controls (aphid mortality)
Description: For evaluating control of vetch aphid (Megoura viciae) through contact or systemic means the test unit consisted of 24-well-microtiter plates containing broad bean leaf disks.
The compounds were formulated using a solution containing 75% v/v water and 25% v/v DMSO. Different concentrations of formulated compounds were sprayed onto the leaf disks at 2.5 μl, using a custom built micro atomizer, at two replications.
After application, the leaf disks were air-dried and 5-8 adult aphids placed on the leaf disks inside the microtiter plate wells. The aphids were then allowed to suck on the treated leaf disks and incubated at about 23±1° C. and about 50±5% relative humidity for 5 days. Aphid mortality and fecundity was then visually assessed.

Dichromothrips corbetti = assay: Orchid thrips (Dichromothrips corbetti) floral-immersion test; conditions: read-out: mortality in comparison with untreated controls
Description: Dichromothrips corbetti adults used for bioassay were obtained from a colony maintained continuously under laboratory conditions. For testing purposes, the test compound is diluted in a 1:1 mixture of acetone:water (vol:vol), plus 0.01% vol/vol Alkannuls® EL 620 surfactant.
Thrips potency of each compound was evaluated by using a floral-immersion technique. Plastic petri dishes were used as test arenas. All petals of individual, intact orchid flowers were dipped into treatment solution and allowed to dry. Treated flowers were placed into individual petri dishes along with about 20 adult thrips. The petri dishes were then covered with lids. All test arenas were held under continuous light and a temperature of about 28° C. for duration of the assay. After 3 days, the numbers of live thrips were counted on each flower, and along inner walls of each petri dish. The percent mortality was recorded 72 hours after treatment.

Nephotettix virescens = assay: Rice green leafhopper (Nephotettix virescens) rice seedling spray test; conditions: read-out: mortality in comparison with untreated controls
Description: (§1) Rice seedlings were cleaned and washed 24 hours before spraying. The active compounds were formulated in 50:50 acetone:water (vol:vol), and 0.1% vol/vol surfactant (EL 620) was added. Potted rice seedlings were sprayed with 5 ml test solution, air dried, placed in cages and inoculated with 10 adults. Treated rice plants were kept at about 28-29° C. and relative humidity of about 50-60%. Percent mortality was recorded after 72 hours.

Nilaparvata lugens = assay: Rice brown plant hopper (Nilaparvata lugens) rice seedling spray test; conditions: read-out: mortality in comparison with untreated controls
Description: as §1, with “(vol:vol)” for “(vol:vol),”

Heliothis virescens = assay: Tobacco budworm (Heliothis virescens) diet microtiter plate test; conditions: 120 h, read-out: mortality in comparison with untreated controls (egg and larval mortality)
Description: For evaluating control of tobacco budworm (Heliothis virescens) the test unit consisted of 96-well-microtiter plates containing an insect diet and 15-25 H. virescens eggs. The compounds were formulated using a solution containing 75% v/v water and 25% v/v DMSO. Different concentrations of formulated compounds were sprayed onto the insect diet at 10 μl, using a custom built micro atomizer, at two replications.
After application, microtiter plates were incubated at about 28±1° C. and about 80±5% relative humidity for 5 days. Egg and larval mortality was then visually assessed.

Anthonomus grandis = assay: Boll weevil (Anthonomus grandis) diet microtiter plate test; conditions: 120 h, read-out: mortality in comparison with untreated controls (egg and larval mortality)
Description: For evaluating control of boll weevil (Anthonomus grandis) the test unit consisted of 96-well-microtiter plates containing an insect diet and 5-10 A. grandis eggs.
The compounds were formulated using a solution containing 75% v/v water and 25% v/v DMSO. Different concentrations of formulated compounds were sprayed onto the insect diet at 5 μl, using a custom built micro atomizer, at two replications.
After application, microtiter plates were incubated at about 25±1° C. and about 75±5% relative humidity for 5 days. Egg and larval mortality was then visually assessed.

[1] = 2500 ppm, in aphid diet, 3 days
[2] = 2500 ppm, sprayed broad bean leaf disks, 5 days
[3] = 2500 ppm, sprayed onto insect diet, 5 days
[4] = 500 ppm, floral immersion, 72 hours after treatment
[5] = 500 ppm, sprayed rice seedlings, after 72 hours

CCn1c([O-])c(-c2cccc(C(F)(F)F)c2)c(=O)[n+]2c1COC2c1ccc(Cl)nc1 (stereo not drawn) [Compound C-32]
> 75%: mortality at 2500 ppm (Myzus persicae)

Cn1c2[n+](c([O-])c(-c3ccccc3)c1=O)C(c1cnc(Cl)c(-c3ccccc3)c1)CC2 (stereo not drawn) [Compound C-23]
> 75%: mortality at 2500 ppm (Myzus persicae; [1])

Cn1c2[n+](c([O-])c(-c3ccccc3)c1=O)C(c1cnc(Cl)s1)CO2 (stereo not drawn) [Compound C-19]
> 75%: mortality at 2500 ppm (Megoura viciae)

C[n+]1c([O-])c(-c2ccccc2)c(=O)n2c1CCC2c1ccc(Cl)nc1 (stereo not drawn) [Compound C-1]
> 75%: mortality at 2500 ppm (Myzus persicae) | mortality at 500 ppm (Dichromothrips corbetti; 72 h) | mortality at 500 ppm (Nephotettix virescens; 72 h) | mortality at 500 ppm (Nilaparvata lugens; 72 h) | mortality at 2500 ppm (Heliothis virescens) | mortality at 2500 ppm (Megoura viciae)

C=CCn1c([O-])c(-c2cc(Cl)cc(Cl)c2)c(=O)[n+]2c1CCC2c1cnc(Cl)s1 (stereo not drawn) [Compound C-31]
> 75%: mortality at 2500 ppm (Myzus persicae; [1]) | mortality at 2500 ppm (Megoura viciae; [2])

C[C@@H]1C[C@@H](c2cnc(Cl)s2)[n+]2c([O-])c(-c3ccccc3)c(=O)n(C)c21 (racemic) [Compound C-29]
> 75%: mortality at 2500 ppm (Anthonomus grandis; [3]) | mortality at 2500 ppm (Myzus persicae; [1]) | mortality at 500 ppm (Dichromothrips corbetti; [4]) | mortality at 500 ppm (Nilaparvata lugens; [5]) | mortality at 2500 ppm (Megoura viciae; [2])

CCn1c([O-])c(-c2cc(Cl)cc(Cl)c2)c(=O)[n+]2c1COC2c1ccc(Cl)nc1 (stereo not drawn) [Compound C-44]
> 75%: mortality at 2500 ppm (Anthonomus grandis) | mortality at 2500 ppm (Myzus persicae) | mortality at 2500 ppm (Heliothis virescens) | mortality at 2500 ppm (Megoura viciae)

COC1=NC(c2c[n+]3c(=O)c(-c4ccccc4)c([O-])n(Cc4ccccc4)c3s2)CC1 (stereo not drawn) [Compound C-21]
> 75%: mortality at 2500 ppm (Myzus persicae; [1])

CC[n+]1c([O-])c(-c2ccccc2)c(=O)n2c1CCC2c1ccc(Cl)nc1 (stereo not drawn) [Compound C-2]
> 75%: mortality at 2500 ppm (Myzus persicae) | mortality at 500 ppm (Dichromothrips corbetti; 72 h) | mortality at 500 ppm (Nephotettix virescens; 72 h) | mortality at 2500 ppm (Megoura viciae)

CSc1ncc(C2CCCc3n2c(=O)c(-c2ccccc2)c([O-])[n+]3C)s1 (stereo not drawn) [Compound C-12]
> 75%: mortality at 2500 ppm (Myzus persicae; [1])

CCn1c([O-])c(-c2cccc(C(F)(F)F)c2)c(=O)[n+]2c1COC2c1cnc(Cl)s1 (stereo not drawn) [Compound C-35]
> 75%: mortality at 500 ppm (Dichromothrips corbetti; [4])

C[n+]1c([O-])c(-c2ccccc2)c(=O)n2c1CCCC2c1ccc(Cl)nc1 (stereo not drawn) [Compound C-8, 6-(6-chloro-3-pyridyl)-1-methyl-4-oxo-3-phenyl-6,7,8,9-tetrahydropyrido[1,2-a]pyrimidin-5-ium-2-olate]
> 75%: mortality at 2500 ppm (Myzus persicae) | mortality at 500 ppm (Dichromothrips corbetti; 72 h) | mortality at 500 ppm (Nephotettix virescens; 72 h) | mortality at 2500 ppm (Megoura viciae)

C=CCn1c([O-])c(-c2ccccc2)c(=O)[n+]2c1CCC2c1cnc(Cl)s1 (stereo not drawn) [Compound C-17]
> 75%: mortality at 2500 ppm (Myzus persicae; [1])

Cn1c2[n+](c([O-])c(-c3cc(Cl)cc(Cl)c3)c1=O)C(c1cnc(Cl)s1)CC2 (stereo not drawn) [Compound C-50]
> 75%: mortality at 2500 ppm (Myzus persicae; [1]) | mortality at 500 ppm (Dichromothrips corbetti; [4]) | mortality at 2500 ppm (Megoura viciae; [2])

CN1C(=O)C(c2ccccc2)=C([O-])[N+]2=C(c3cnc(Cl)s3)CSC12 (stereo not drawn) [Compound C-38]
> 75%: mortality at 2500 ppm (Myzus persicae; [1]) | mortality at 500 ppm (Dichromothrips corbetti; [4]) | mortality at 500 ppm (Nephotettix virescens; [5]) | mortality at 500 ppm (Nilaparvata lugens; [5]) | mortality at 2500 ppm (Heliothis virescens; [3]) | mortality at 2500 ppm (Megoura viciae; [2])

C=CCn1c([O-])c(-c2cccc(C(F)(F)F)c2)c(=O)[n+]2c1CCC2c1cnc(Cl)s1 (stereo not drawn) [Compound C-41]
> 75%: mortality at 2500 ppm (Myzus persicae; [1])

Cn1c2[n+](c([O-])c(-c3cccc(-c4ncc(C(F)(F)F)cc4Cl)c3)c1=O)C(c1cnc(Cl)s1)CC2 (stereo not drawn) [Compound C-48]
> 75%: mortality at 2500 ppm (Myzus persicae; [1]) | mortality at 500 ppm (Dichromothrips corbetti; [4]) | mortality at 2500 ppm (Megoura viciae; [2])

CCn1c([O-])c(-c2cccc(C(F)(F)F)c2)c(=O)[n+]2c1CCC2c1cnc(Cl)s1 (stereo not drawn) [Compound C-27]
> 75%: mortality at 2500 ppm (Myzus persicae; [1]) | mortality at 500 ppm (Dichromothrips corbetti; [4]) | mortality at 2500 ppm (Megoura viciae; [2])

O=c1c(-c2ccccc2)c([O-])n(Cc2ccccc2)c2[n+]1C(c1cnc(Cl)s1)CC2 (stereo not drawn) [Compound C-34]
> 75%: mortality at 2500 ppm (Myzus persicae; [1]) | mortality at 500 ppm (Dichromothrips corbetti; [4]) | mortality at 2500 ppm (Megoura viciae; [2])

C[n+]1c([O-])c(-c2ccccc2)c(=O)n2c1CCC2c1cnc(Cl)s1 (stereo not drawn) [Compound C-6, 6-(2-chlorothiazol-5-yl)-1-methyl-4-oxo-3-phenyl-3,6,7,8-tetrahydro-2H-pyrrolo[1,2-a]pyrimidin-5-ium-2-olate]
> 75%: mortality at 2500 ppm (Myzus persicae) | mortality at 500 ppm (Dichromothrips corbetti; 72 h) | mortality at 500 ppm (Nephotettix virescens; 72 h) | mortality at 500 ppm (Nilaparvata lugens; 72 h) | mortality at 2500 ppm (Megoura viciae)

CCn1c([O-])c(-c2cccc(-c3ccccc3)c2)c(=O)[n+]2c1COC2c1ccc(Cl)nc1 (stereo not drawn) [Compound C-43]
> 75%: mortality at 2500 ppm (Myzus persicae; [1])

Cn1c2[n+](c([O-])c(-c3cccc(C(F)(F)F)c3)c1=O)C(c1cnc(Cl)s1)CC2 (stereo not drawn) [Compound C-22]
> 75%: mortality at 2500 ppm (Myzus persicae; [1]) | mortality at 500 ppm (Dichromothrips corbetti; [4]) | mortality at 500 ppm (Nephotettix virescens; [5]) | mortality at 2500 ppm (Megoura viciae; [2])

Cn1c2[n+](c([O-])c(-c3cccc(-c4ccccc4)c3)c1=O)C(c1cnc(Cl)s1)CC2 (stereo not drawn) [Compound C-45]
> 75%: mortality at 2500 ppm (Myzus persicae; [1]) | mortality at 500 ppm (Dichromothrips corbetti; [4]) | mortality at 2500 ppm (Heliothis virescens; [3]) | mortality at 2500 ppm (Megoura viciae; [2])

CC(C)[n+]1c([O-])c(-c2ccccc2)c(=O)n2c1CCC2c1ccc(Cl)nc1 (stereo not drawn) [Compound C-3]
> 75%: mortality at 2500 ppm (Anthonomus grandis) | mortality at 2500 ppm (Myzus persicae) | mortality at 500 ppm (Dichromothrips corbetti; 72 h) | mortality at 2500 ppm (Megoura viciae; in Vicia faba)

Cn1c2[n+](c([O-])c(-c3cccc(C(F)(F)F)c3)c1=O)[C@@H](c1cnc(Cl)s1)CC2 (single isomer, unassigned) [Compound C-28]
> 75%: mortality at 500 ppm (Dichromothrips corbetti; [4]) | mortality at 500 ppm (Nephotettix virescens; [5]) | mortality at 500 ppm (Nilaparvata lugens; [5])

CCn1c([O-])c(-c2ccc(OC)cc2)c(=O)[n+]2c1CCC2c1cnc(Cl)s1 (stereo not drawn) [Compound C-47]
> 75%: mortality at 2500 ppm (Anthonomus grandis; [3]) | mortality at 2500 ppm (Myzus persicae; [1]) | mortality at 500 ppm (Dichromothrips corbetti; [4]) | mortality at 500 ppm (Nephotettix virescens; [5]) | mortality at 2500 ppm (Megoura viciae; [2])

CCn1c([O-])c(-c2ccccc2)c(=O)[n+]2c1CCC2c1cnc(Cl)s1 (stereo not drawn) [Compound C-24]
> 75%: mortality at 2500 ppm (Myzus persicae; [1]) | mortality at 500 ppm (Dichromothrips corbetti; [4]) | mortality at 500 ppm (Nephotettix virescens; [5]) | mortality at 500 ppm (Nilaparvata lugens; [5]) | mortality at 2500 ppm (Megoura viciae; [2])

CCn1c([O-])c(-c2cccc(-c3ccccc3)c2)c(=O)[n+]2c1CCC2c1cnc(Cl)s1 (stereo not drawn) [Compound C-49]
> 75%: mortality at 2500 ppm (Myzus persicae; [1]) | mortality at 500 ppm (Dichromothrips corbetti; [4]) | mortality at 2500 ppm (Megoura viciae; [2])

Cn1c2[n+](c([O-])c(-c3ccccc3)c1=O)C(c1cnc(Cl)s1)CC2(C)C (stereo not drawn) [Compound C-40]
> 75%: mortality at 2500 ppm (Anthonomus grandis; [3]) | mortality at 2500 ppm (Myzus persicae; [1]) | mortality at 2500 ppm (Megoura viciae; [2])

C[n+]1c([O-])c(-c2ccccc2)c(=O)n2c1CCCC2c1cnc(Cl)s1 (stereo not drawn) [Compound C-13]
> 75%: mortality at 2500 ppm (Myzus persicae; [1]) | mortality at 2500 ppm (Megoura viciae; [2])
